Measurements taken from patent US20120029187A1, “HALOALKYLSULFONANILIDE DERIVATIVE” (Nissan Chemical Industries, Ltd., priority 2009, published 2012).

What was measured:
Type in all cases: in vivo
barnyardgrass [1] = experiment: Test Example 1: herbicidal effects in preemergence treatment under submerged conditions; conditions: dose 2.52 g/a
How it was run: (§1)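 Scoring 0 (<5% mortality) to 5 (≥90%) was done three weeks after preemergence application to the water surface of submerged (4 cm) alluvial soil, doses given as g per are. Weeds were seeded and 2.5-leaf rice transplanted on the treatment day; greenhouse at 25–30 °C.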

bulrush [2] = experiment: as above; conditions: dose 2.52 g/a
How it was run: as §1

ducksalad [3] = experiment: as above; conditions: dose 2.52 g/a
How it was run: as §1

transplanted rice = experiment: Test Example 1: preemergence treatment under submerged conditions, effect on crop; conditions: dose 2.52 g/a
How it was run: as §1

barnyardgrass [4] = experiment: Test Example 2: herbicidal effects during the vegetation period under submerged conditions; conditions: treatment during the vegetation period under submerged conditions; dose 2.52 g/a
How it was run: (§2)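 Barnyardgrass, bulrush and ducksalad were co-sown in alluvial soil flooded to 4 cm and grown in a greenhouse at 25 to 30° C. At the 1- or 2-leaf stage, water-diluted emulsifiable concentrates went onto the water surface at set doses (g/a). Herbicidal effect was scored three weeks later on a graded scale.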

bulrush [5] = experiment: as above; conditions: treatment during the vegetation period under submerged conditions; dose 2.52 g/a
How it was run: as §2

ducksalad [6] = experiment: as above; conditions: treatment during the vegetation period under submerged conditions; dose 2.52 g/a
How it was run: as §2

Italian ryegrass [7] = experiment: Test Example 3: herbicidal effects in soil treatment; conditions: dose 3.2 g/a
How it was run: (§3)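 Seeds were sown in sterilized diluvial soil and covered with about 1.5 cm of soil. Compounds, formulated as emulsifiable concentrates and diluted with water, were sprayed evenly over the soil surface at set doses in g/a. Herbicidal effect was scored on a rating scale three weeks later.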

barnyardgrass [8] = experiment: as above; conditions: dose 3.2 g/a
How it was run: as §3

common chickweed [9] = experiment: as above; conditions: dose 3.2 g/a
How it was run: as §3

common lambsquater [10] = experiment: as above; conditions: dose 3.2 g/a
How it was run: as §3

common ragweed [11] = experiment: as above; conditions: dose 3.2 g/a
How it was run: as §3

giant foxtail [12] = experiment: as above; conditions: dose 3.2 g/a
How it was run: as §3

large crabgrass [13] = experiment: as above; conditions: dose 3.2 g/a
How it was run: as §3

posumbu knotweed [14] = experiment: as above; conditions: dose 3.2 g/a
How it was run: as §3

redroot pigweed [15] = experiment: as above; conditions: dose 3.2 g/a
How it was run: as §3

velvetleaf [16] = experiment: as above; conditions: dose 3.2 g/a
How it was run: as §3

water foxtail [17] = experiment: as above; conditions: dose 3.2 g/a
How it was run: as §3

wild oat [18] = experiment: as above; conditions: dose 3.2 g/a
How it was run: as §3

Italian ryegrass [19] = experiment: Test Example 4: herbicidal effect in foliage treatment; conditions: dose 3.2 g/a
How it was run: (§4)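 A uniform foliar spray of emulsifiable concentrate, diluted with water to give the stated g/a dose, was applied to plants raised for 14 days from seed in sterilized diluvial soil at 25 to 30° C. Herbicidal effects were scored three weeks later.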

barnyardgrass [20] = experiment: as above; conditions: dose 3.2 g/a
How it was run: as §4

beadstraw = experiment: as above; conditions: dose 3.2 g/a
How it was run: as §4

common chickweed [21] = experiment: as above; conditions: dose 3.2 g/a
How it was run: as §4

common lambsquater [22] = experiment: as above; conditions: dose 3.2 g/a
How it was run: as §4

common ragweed [23] = experiment: as above; conditions: dose 3.2 g/a
How it was run: as §4

giant foxtail [24] = experiment: as above; conditions: dose 3.2 g/a
How it was run: as §4

large crabgrass [25] = experiment: as above; conditions: dose 3.2 g/a
How it was run: as §4

posumbu knotweed [26] = experiment: as above; conditions: dose 3.2 g/a
How it was run: as §4

redroot pigweed [27] = experiment: as above; conditions: dose 3.2 g/a
How it was run: as §4

velvetleaf [28] = experiment: as above; conditions: dose 3.2 g/a
How it was run: as §4

water foxtail [29] = experiment: as above; conditions: dose 3.2 g/a
How it was run: as §4

wild oat [30] = experiment: as above; conditions: dose 3.2 g/a
How it was run: as §4

[31] = three weeks after the application

In the case of `CCOC(=O)N(c1ccccc1CN1C(=O)COCC1C)S(=O)(=O)C(F)(F)F` (stereo not shown) [Compound I-14], the “A: barnyardgrass, herbicidal effect (evaluation scale 0-5)” value (barnyardgrass [1]) was 5 (mortality of 90% or above (nearly complete death)), the “B: bulrush, herbicidal effect (evaluation scale 0-5)” value (“B: bulrush, herbicidal effect” for short) (bulrush [2]) was 5 (mortality of 90% or above (nearly complete death)) and the “C: ducksalad, herbicidal effect (evaluation scale 0-5)” value (“C: ducksalad, herbicidal effect” below) (ducksalad [3]) was 5 (mortality of 90% or above (nearly complete death)). For the same compound, the “a: transplanted rice, effect on crop (evaluation scale 0-5)” value (transplanted rice) was 0 (mortality of less than 5% (almost ineffective)), the “A: barnyardgrass, herbicidal effect (evaluation scale 0-5)” value (barnyardgrass [4]) was 5 (mortality of 90% or above (nearly complete death)) and the “B: bulrush, herbicidal effect” value (bulrush [5]) was 5 (mortality of 90% or above (nearly complete death)). For the same compound, the “C: ducksalad, herbicidal effect” value (ducksalad [6]) was 5 (mortality of 90% or above (nearly complete death)), the “H: Italian ryegrass, herbicidal effect (evaluation scale 0-5)” value (Italian ryegrass [7]) was 5 (mortality of 90% or above (nearly complete death)) and the “A: barnyardgrass, herbicidal effect (evaluation scale 0-5)” value (barnyardgrass [8]) was 5 (mortality of 90% or above (nearly complete death)). For the same compound, the “N: common chickweed, herbicidal effect (evaluation scale 0-5)” value (common chickweed [9]) was 5 (mortality of 90% or above (nearly complete death)), the “L: common lambsquater, herbicidal effect (evaluation scale 0-5)” value (common lambsquater [10]) was 5 (mortality of 90% or above (nearly complete death)) and the “J: common ragweed, herbicidal effect (evaluation scale 0-5)” value (common ragweed [11]) was 5 (mortality of 90% or above (nearly complete death)). The “E: giant foxtail, herbicidal effect (evaluation scale 0-5)” value (giant foxtail [12]) was 5 (mortality of 90% or above (nearly complete death)), the “D: large crabgrass, herbicidal effect (evaluation scale 0-5)” value (large crabgrass [13]) was 5 (mortality of 90% or above (nearly complete death)) and the “M: posumbu knotweed, herbicidal effect (evaluation scale 0-5)” value (posumbu knotweed [14]) was 5 (mortality of 90% or above (nearly complete death)). The “K: redroot pigweed, herbicidal effect (evaluation scale 0-5)” value (redroot pigweed [15]) was 5 (mortality of 90% or above (nearly complete death)), the “I: velvetleaf, herbicidal effect (evaluation scale 0-5)” value (velvetleaf [16]) was 5 (mortality of 90% or above (nearly complete death)) and the “G: water foxtail, herbicidal effect (evaluation scale 0-5)” value (water foxtail [17]) was 5 (mortality of 90% or above (nearly complete death)). The “F: wild oat, herbicidal effect (evaluation scale 0-5)” value (wild oat [18]) was 4 (mortality of at least 70% and less than 90%), the “H: Italian ryegrass, herbicidal effect” value (Italian ryegrass [19]; three weeks after application) was 5 (mortality of 90% or above (nearly complete death)) and the “A: barnyardgrass, herbicidal effect” value (barnyardgrass [20]; three weeks after application) was 5 (mortality of 90% or above (nearly complete death)). The “O: beadstraw, herbicidal effect” value (beadstraw; three weeks after application) was 4 (mortality of at least 70% and less than 90%), the “N: common chickweed, herbicidal effect” value (common chickweed [21]; three weeks after application) was 4 (mortality of at least 70% and less than 90%) and the “L: common lambsquater, herbicidal effect” value (common lambsquater [22]; three weeks after application) was 5 (mortality of 90% or above (nearly complete death)). The “J: common ragweed, herbicidal effect” value (common ragweed [23]; three weeks after application) was 4 (mortality of at least 70% and less than 90%), the “E: giant foxtail, herbicidal effect” value (giant foxtail [24]; three weeks after application) was 4 (mortality of at least 70% and less than 90%) and the “D: large crabgrass, herbicidal effect” value (large crabgrass [25]; three weeks after application) was 4 (mortality of at least 70% and less than 90%). The “M: posumbu knotweed, herbicidal effect” value (posumbu knotweed [26]; three weeks after application) was 4 (mortality of at least 70% and less than 90%), the “K: redroot pigweed, herbicidal effect” value (redroot pigweed [27]; three weeks after application) was 4 (mortality of at least 70% and less than 90%) and the “I: velvetleaf, herbicidal effect” value (velvetleaf [28]; three weeks after application) was 5 (mortality of 90% or above (nearly complete death)). For the same compound, the “G: water foxtail, herbicidal effect” value (water foxtail [29]; three weeks after application) was 5 (mortality of 90% or above (nearly complete death)) and the “F: wild oat, herbicidal effect” value (wild oat [30]; three weeks after application) was 0 (mortality of less than 5% (almost ineffective)).
With `CCN1COCN(Cc2ccccc2NS(=O)(=O)C(F)(F)F)C1=O` [IV-5] the “A: barnyardgrass, herbicidal effect (evaluation scale 0-5)” value (barnyardgrass [1]) was 5 (mortality of 90% or above (nearly complete death)), the “B: bulrush, herbicidal effect” value (bulrush [2]) was 5 (mortality of 90% or above (nearly complete death)) and the “C: ducksalad, herbicidal effect” value (ducksalad [3]) was 4 (mortality of at least 70% and less than 90%). The “a: transplanted rice, effect on crop (evaluation scale 0-5)” value (transplanted rice) was 0 (mortality of less than 5% (almost ineffective)), the “A: barnyardgrass, herbicidal effect (evaluation scale 0-5)” value (barnyardgrass [4]) was 5 (mortality of 90% or above (nearly complete death)) and the “B: bulrush, herbicidal effect” value (bulrush [5]) was 5 (mortality of 90% or above (nearly complete death)). The “C: ducksalad, herbicidal effect” value (ducksalad [6]) was 5 (mortality of 90% or above (nearly complete death)), the “herbicidal effect, H: Italian ryegrass” value (Italian ryegrass [7]) was 4 (mortality of at least 70% and less than 90%) and the “herbicidal effect, A: barnyardgrass” value (barnyardgrass [8]) was 5 (mortality of 90% or above (nearly complete death)). For the same compound, the “herbicidal effect, N: common chickweed” value (common chickweed [9]) was 5 (mortality of 90% or above (nearly complete death)), the “herbicidal effect, L: common lambsquater” value (common lambsquater [10]) was 3 (mortality of at least 40% and less than 70%) and the “herbicidal effect, J: common ragweed” value (common ragweed [11]) was 0 (mortality of less than 5% (almost ineffective)). The “herbicidal effect, E: giant foxtail” value (giant foxtail [12]) was 5 (mortality of 90% or above (nearly complete death)), the “herbicidal effect, D: large crabgrass” value (large crabgrass [13]) was 5 (mortality of 90% or above (nearly complete death)) and the “herbicidal effect, M: posumbu knotweed” value (posumbu knotweed [14]) was 4 (mortality of at least 70% and less than 90%). For the same compound, the “herbicidal effect, K: redroot pigweed” value (redroot pigweed [15]) was 3 (mortality of at least 40% and less than 70%), the “herbicidal effect, I: velvetleaf” value (velvetleaf [16]) was 5 (mortality of 90% or above (nearly complete death)) and the “herbicidal effect, G: water foxtail” value (water foxtail [17]) was 5 (mortality of 90% or above (nearly complete death)). The “herbicidal effect, F: wild oat” value (wild oat [18]) was 2 (mortality of at least 20% and less than 40%), the “H: Italian ryegrass, herbicidal effect” value (Italian ryegrass [19]; [31]) was 3 (mortality of at least 40% and less than 70%) and the “A: barnyardgrass, herbicidal effect” value (barnyardgrass [20]; [31]) was 5 (mortality of 90% or above (nearly complete death)). The “O: beadstraw, herbicidal effect” value (beadstraw; [31]) was 3 (mortality of at least 40% and less than 70%), the “N: common chickweed, herbicidal effect” value (common chickweed [21]; [31]) was 4 (mortality of at least 70% and less than 90%) and the “L: common lambsquater, herbicidal effect” value (common lambsquater [22]; [31]) was 3 (mortality of at least 40% and less than 70%). The “J: common ragweed, herbicidal effect” value (common ragweed [23]; [31]) was 3 (mortality of at least 40% and less than 70%), the “E: giant foxtail, herbicidal effect” value (giant foxtail [24]; [31]) was 4 (mortality of at least 70% and less than 90%) and the “D: large crabgrass, herbicidal effect” value (large crabgrass [25]; [31]) was 4 (mortality of at least 70% and less than 90%). For the same compound, the “M: posumbu knotweed, herbicidal effect” value (posumbu knotweed [26]; [31]) was 0 (mortality of less than 5% (almost ineffective)), the “K: redroot pigweed, herbicidal effect” value (redroot pigweed [27]; [31]) was 0 (mortality of less than 5% (almost ineffective)) and the “I: velvetleaf, herbicidal effect” value (velvetleaf [28]; [31]) was 5 (mortality of 90% or above (nearly complete death)). The “G: water foxtail, herbicidal effect” value (water foxtail [29]; [31]) was 5 (mortality of 90% or above (nearly complete death)) and the “F: wild oat, herbicidal effect” value (wild oat [30]; [31]) was 0 (mortality of less than 5% (almost ineffective)).
